The source of these data is paper PMC4710522, “A Novel Triazolopyridine-Based Spleen Tyrosine Kinase Inhibitor That Arrests Joint Inflammation” (PLoS ONE, 2016).

A word on the IC50: it is the concentration needed to halve the response being measured.

For one assay, the target named is T1, Blk_m (Mus musculus, UniProt P16277).
T1 construct: purchased Life Technologies (Invitrogen) SelectScreen, Z'-LYTE / Adapta
The assay is described as follows: SelectScreen kinase assay. Conditions: KM ATP. In kind it is biochemical. On the procedure: (§1) Syk kinase mode of inhibition studies, including parameters described in Fig 1, were conducted on the LC3000 platform by Caliper Life Sciences (Hopkinton, MA) according to standard protocols developed by the supplier. […] Non-kinase enzyme assays and GPCR, ion channel, and transporter binding assays were run by CEREP (France). Non-GLP manual patch clamp hERG assays were run by ChanTest (Cleveland, Ohio). Vivid® Assay kits (Life Technologies) were used to measure the cytochrome P450 inhibition of the compound against CYP3A, CYP2C9, CYP2C19, CYP2D6, and CYP1A2, as described.
(§2) Kinase activity was measured using either the Z’-Lyte® or the Adapta® protocols as part of the SelectScreen™ profiling service offered at Life Technologies (Grand Island, NY). For the single point measurements (Part A), CC-509 was kept constant at 3 µM while ATP concentrations [ATP] used were at the KM for ATP (KM ATP) for that specific enyzme, at 10 or 100 µM ATP (10 ATP or 100 ATP, respectively), as indicated. Values expressed as percent control (% control) relative to DMSO-only wells (uninhibited, 100%).
(§3) Kinase activity was measured using either the Z’-Lyte® or the Adapta® protocols as part of the SelectScreen™ profiling service offered at Life Technologies (Grand Island, NY). […] Values expressed as percent control (% control) relative to DMSO-only wells (uninhibited, 100%).

For the next assay, the target named is T2, CDK1_cyclinB_h (Homo sapiens, UniProt P06493).
T2 construct: purchased Life Technologies (Invitrogen) SelectScreen, Z'-LYTE / Adapta
In words: SelectScreen kinase assay. Type of assay: biochemical. The settings on record: KM ATP. On the procedure: as §1, §2, §3

In the next assay the target is T3, DYRK4_h (Homo sapiens, UniProt Q9NR20).
T3 construct: purchased Life Technologies (Invitrogen) SelectScreen, Z'-LYTE / Adapta
The assay is described as follows: SelectScreen kinase assay. Type of assay: biochemical. Conditions: KM ATP. On the procedure: as §1, §2, §3

For a further assay, the target named is T4, EEF2K_h (Homo sapiens, UniProt O00418).
T4 construct: purchased Life Technologies (Invitrogen) SelectScreen, Z'-LYTE / Adapta
T4 sequence (O00418 whole entry): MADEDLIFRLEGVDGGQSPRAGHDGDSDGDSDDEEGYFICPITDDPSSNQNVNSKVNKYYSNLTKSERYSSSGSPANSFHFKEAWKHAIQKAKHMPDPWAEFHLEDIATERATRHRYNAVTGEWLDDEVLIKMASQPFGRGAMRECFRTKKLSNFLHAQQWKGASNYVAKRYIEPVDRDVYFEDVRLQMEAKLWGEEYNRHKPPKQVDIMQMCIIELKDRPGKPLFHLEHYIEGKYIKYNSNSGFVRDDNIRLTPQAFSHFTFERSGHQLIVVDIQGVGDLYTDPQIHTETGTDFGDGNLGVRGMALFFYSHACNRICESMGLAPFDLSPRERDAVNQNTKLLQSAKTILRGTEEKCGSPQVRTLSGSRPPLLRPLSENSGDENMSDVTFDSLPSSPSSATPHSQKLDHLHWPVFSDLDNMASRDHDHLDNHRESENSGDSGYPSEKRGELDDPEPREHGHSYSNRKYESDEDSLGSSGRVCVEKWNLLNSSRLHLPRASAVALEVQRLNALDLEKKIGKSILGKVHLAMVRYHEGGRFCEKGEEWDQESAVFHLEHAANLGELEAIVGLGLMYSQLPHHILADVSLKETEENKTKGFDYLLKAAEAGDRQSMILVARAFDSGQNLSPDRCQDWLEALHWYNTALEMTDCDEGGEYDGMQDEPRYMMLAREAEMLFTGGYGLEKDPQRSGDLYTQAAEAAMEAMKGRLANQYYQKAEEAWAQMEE
The assay is described as follows: SelectScreen kinase assay. In kind it is biochemical. The settings on record: KM ATP. Here is the method:
as §1, §2, §3

In a further assay the target is T5, GRK5_h (Homo sapiens, UniProt P34947).
T5 construct: purchased Life Technologies (Invitrogen) SelectScreen, Z'-LYTE / Adapta
T5 sequence (P34947 whole entry): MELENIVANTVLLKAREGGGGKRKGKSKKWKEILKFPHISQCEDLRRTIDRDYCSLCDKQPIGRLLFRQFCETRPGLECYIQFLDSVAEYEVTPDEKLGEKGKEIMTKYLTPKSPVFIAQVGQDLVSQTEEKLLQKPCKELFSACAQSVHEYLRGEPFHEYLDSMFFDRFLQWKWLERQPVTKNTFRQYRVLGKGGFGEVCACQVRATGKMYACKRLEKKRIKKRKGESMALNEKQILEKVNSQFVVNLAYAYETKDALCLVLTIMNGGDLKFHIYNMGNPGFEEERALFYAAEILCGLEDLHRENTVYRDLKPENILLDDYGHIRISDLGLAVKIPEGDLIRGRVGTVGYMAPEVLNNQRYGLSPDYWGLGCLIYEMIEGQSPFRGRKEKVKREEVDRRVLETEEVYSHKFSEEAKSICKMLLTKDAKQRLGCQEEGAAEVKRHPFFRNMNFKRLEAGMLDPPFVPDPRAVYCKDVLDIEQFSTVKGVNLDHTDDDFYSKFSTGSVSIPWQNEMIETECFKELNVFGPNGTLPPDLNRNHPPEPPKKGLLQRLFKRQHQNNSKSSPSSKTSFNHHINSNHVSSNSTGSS
In words: SelectScreen kinase assay. The settings on record: KM ATP. In kind it is biochemical. Here is the method: as §1, §2, §3

The target of the next assay is T6, GRK6_h (Homo sapiens, UniProt P43250).
T6 construct: purchased Life Technologies (Invitrogen) SelectScreen, Z'-LYTE / Adapta
In words: SelectScreen kinase assay. Type of assay: biochemical. Conditions: KM ATP. On the procedure: as §1, §2, §3

In another assay the target is T7, GSG2 _h (Homo sapiens, UniProt Q8TF76).
T7 construct: purchased Life Technologies (Invitrogen) SelectScreen, Z'-LYTE / Adapta
T7 sequence (Q8TF76 whole entry): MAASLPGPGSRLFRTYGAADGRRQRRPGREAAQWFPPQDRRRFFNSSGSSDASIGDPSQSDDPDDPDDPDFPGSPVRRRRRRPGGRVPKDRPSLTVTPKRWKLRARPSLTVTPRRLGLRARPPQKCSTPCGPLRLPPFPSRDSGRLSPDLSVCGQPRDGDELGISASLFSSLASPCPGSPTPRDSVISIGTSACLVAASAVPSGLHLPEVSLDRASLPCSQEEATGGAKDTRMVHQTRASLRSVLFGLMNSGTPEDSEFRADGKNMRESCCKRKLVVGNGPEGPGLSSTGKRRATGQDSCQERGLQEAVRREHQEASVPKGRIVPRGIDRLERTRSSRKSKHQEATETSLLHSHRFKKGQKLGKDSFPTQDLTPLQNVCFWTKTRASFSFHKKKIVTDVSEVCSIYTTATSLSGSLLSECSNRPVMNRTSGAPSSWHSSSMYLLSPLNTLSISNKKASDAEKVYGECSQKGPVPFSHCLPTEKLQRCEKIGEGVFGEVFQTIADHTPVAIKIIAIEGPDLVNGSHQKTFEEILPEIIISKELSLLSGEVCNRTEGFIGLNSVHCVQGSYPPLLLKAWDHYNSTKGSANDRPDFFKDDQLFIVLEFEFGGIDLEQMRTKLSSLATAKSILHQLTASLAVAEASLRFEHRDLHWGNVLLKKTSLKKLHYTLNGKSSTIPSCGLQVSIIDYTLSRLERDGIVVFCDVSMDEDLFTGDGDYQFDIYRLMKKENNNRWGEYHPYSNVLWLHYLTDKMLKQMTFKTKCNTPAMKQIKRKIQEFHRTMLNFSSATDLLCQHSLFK
The assay is described as follows: SelectScreen kinase assay. The settings on record: KM ATP. Type of assay: biochemical. On the procedure: as §1, §2, §3

A further assay addresses T8, MAP3K8_h (Homo sapiens, UniProt P41279).
T8 construct: purchased Life Technologies (Invitrogen) SelectScreen, Z'-LYTE / Adapta
The assay is described as follows: SelectScreen kinase assay. In kind it is biochemical. Conditions: 100 µM ATP. On the procedure: as §1, §2, §3

The target of a further assay is T9, MAPKAP-K3_h (Homo sapiens, UniProt Q16644).
T9 construct: purchased Life Technologies (Invitrogen) SelectScreen, Z'-LYTE / Adapta
In words: SelectScreen kinase assay. Type of assay: biochemical. Conditions: KM ATP. Here is the method: as §1, §2, §3

In the next assay the target is T10, PKC-alpha_h (Homo sapiens, UniProt P17252).
T10 construct: purchased Life Technologies (Invitrogen) SelectScreen, Z'-LYTE / Adapta
The assay is described as follows: SelectScreen kinase assay. Type of assay: biochemical. Conditions: KM ATP. Here is the method: as §1, §2, §3

The target in a further assay is T11, PKC-betaII_h (Homo sapiens, UniProt P05771).
T11 construct: purchased Life Technologies (Invitrogen) SelectScreen, Z'-LYTE / Adapta
In words: SelectScreen kinase assay. In kind it is biochemical. Conditions: KM ATP. Here is the method: as §1, §2, §3

The target in another assay is T12, PKC-betaI_h (Homo sapiens, UniProt P05771).
T12 construct: purchased Life Technologies (Invitrogen) SelectScreen, Z'-LYTE / Adapta
T12 sequence (P05771 whole entry): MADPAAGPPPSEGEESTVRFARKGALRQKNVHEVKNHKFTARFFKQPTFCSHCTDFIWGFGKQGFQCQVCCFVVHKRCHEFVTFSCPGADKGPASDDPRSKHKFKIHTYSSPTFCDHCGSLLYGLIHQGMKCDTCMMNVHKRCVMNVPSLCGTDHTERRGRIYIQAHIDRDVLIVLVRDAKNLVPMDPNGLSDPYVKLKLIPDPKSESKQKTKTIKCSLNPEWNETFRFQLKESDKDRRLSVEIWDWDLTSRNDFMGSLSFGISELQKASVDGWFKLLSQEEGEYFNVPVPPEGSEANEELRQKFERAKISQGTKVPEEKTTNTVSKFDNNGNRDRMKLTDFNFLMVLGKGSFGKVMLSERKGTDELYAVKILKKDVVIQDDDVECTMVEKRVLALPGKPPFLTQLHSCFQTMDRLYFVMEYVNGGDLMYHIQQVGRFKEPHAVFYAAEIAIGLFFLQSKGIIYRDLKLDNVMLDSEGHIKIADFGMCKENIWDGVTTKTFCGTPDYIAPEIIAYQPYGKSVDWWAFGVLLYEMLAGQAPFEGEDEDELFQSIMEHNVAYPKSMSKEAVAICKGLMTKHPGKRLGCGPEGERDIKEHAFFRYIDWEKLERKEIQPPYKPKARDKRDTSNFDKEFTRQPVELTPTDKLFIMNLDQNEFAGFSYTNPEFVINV
In words: SelectScreen kinase assay. Type of assay: biochemical. The settings on record: KM ATP. Here is the method:
as §1, §2, §3

The next assay concerns the target T13, PKC-gamma_h (Homo sapiens, UniProt P05129).
T13 construct: purchased Life Technologies (Invitrogen) SelectScreen, Z'-LYTE / Adapta
The assay is described as follows: SelectScreen kinase assay. Type of assay: biochemical. Conditions: KM ATP. On the procedure: as §1, §2, §3

The next assay has as its target T14, SGK2_h (Homo sapiens, UniProt Q9HBY8).
T14 construct: purchased Life Technologies (Invitrogen) SelectScreen, Z'-LYTE / Adapta
In words: SelectScreen kinase assay. Type of assay: biochemical. Conditions: KM ATP. On the procedure: as §1, §2, §3

The target in another assay is T15, SGK_h (Homo sapiens, UniProt O00141).
T15 construct: purchased Life Technologies (Invitrogen) SelectScreen, Z'-LYTE / Adapta
In words: SelectScreen kinase assay. In kind it is biochemical. Conditions: KM ATP. Here is the method: as §1, §2, §3

In a further assay the target is T16, TSSK2_h (Homo sapiens, UniProt Q96PF2).
T16 construct: purchased Life Technologies (Invitrogen) SelectScreen, Z'-LYTE / Adapta
The assay is described as follows: SelectScreen kinase assay. Type of assay: biochemical. The settings on record: KM ATP. Here is the method: as §1, §2, §3

Assay [1] deals with basophil activation in human whole blood. In words: basophil human whole blood assay (CD63). In kind it is cell-based. On the procedure:
Assay was conducted according to the protocol for the BasoTest kit provided by supplier (Biocarta, San Diego, CA), with slight modification. Briefly, 100μl of heparinized human whole blood was added to each well of a 24-well deep plate (Microliter Analytical Supplies, Suwanee, GA) and preincubated with CC-509 for 30 minutes in a 37°C water bath. Basophils were stimulated with mite or dust extract (included in kit), or anti-IgE (diluted 1:10,000) for 20 minutes in a 37°C water bath and then on ice for 5 minutes. Cells were incubated in the FcεR receptor and CD63 antibody staining solution (included in kit) for 20 minutes on ice followed by agitation in a fixative/ red blood cell lysis buffer (included in kit) for 10 minutes at room temperature. Cells were washed twice with Basosalt solution (included in kit) and the final cell suspensions was transferred to U-bottom 96-well plates (BD Falcon, San Diego, CA) for analysis by flow cytometry on the FACSArray Bioanalyzer (BD Biosciences, San Jose, CA). Standard gating methods were used to identify basophils and to measure the mean intensity of CD63 fluorescence. FCS files were exported and analyzed as described in the Data Analysis section.
For the TEL-Syk assay, the intensity values for the 700 and 800 channel were exported as text files in ActivityBase (IDBS, Guildford, UK) to derive the ratios that reflect kinase activity. For LAD2 experiments, enzyme activity values were exported as text files into ActivityBase to calculate “percent release” according to the formula: 100* supernatant OD405/ (supernatant OD405 + (pellet OD405*pellet dilution factor)). For the basophil and B-cells assays, flow cytometry data was exported from the FACS Array and processed using FloJo software package (TreeStar, Inc., Ashland, Oregon). For the JAK2 HEL and Ramos NFAT β-lactamase assays, the fluorescence values obtained at 460 nm and 530 nm were exported into ActivityBase to calculate response ratios. For the neutrophil, macrophage, KDR, and JAK1/3 assays, raw values were exported into ActivityBase to calculate percent inhibition. All IC50 calculations were generated using XLfit (IDBS, Guildford, UK) algorithm 205 within Excel. For PCA, the OD from the saline injected site was subtracted from the OD from the anti-DNP IgE injected site. Evans blue dye extravasation was expressed as mean ± SEM and % inhibition for the test article groups was normalized to the cromolyn positive control. For the CIA model paw measurements (left and right ankle diameter) were taken for each individual animal and averaged. The mean data from each group was plotted and either the AUC(day 11–18) or % inhibition on day 18 was calculated. Data is expressed as mean ± SEM of each group with n = 6–12. […]

Read-outs that look alike come from different tables or passages of the source.

T1 sequence (P16277 2-499): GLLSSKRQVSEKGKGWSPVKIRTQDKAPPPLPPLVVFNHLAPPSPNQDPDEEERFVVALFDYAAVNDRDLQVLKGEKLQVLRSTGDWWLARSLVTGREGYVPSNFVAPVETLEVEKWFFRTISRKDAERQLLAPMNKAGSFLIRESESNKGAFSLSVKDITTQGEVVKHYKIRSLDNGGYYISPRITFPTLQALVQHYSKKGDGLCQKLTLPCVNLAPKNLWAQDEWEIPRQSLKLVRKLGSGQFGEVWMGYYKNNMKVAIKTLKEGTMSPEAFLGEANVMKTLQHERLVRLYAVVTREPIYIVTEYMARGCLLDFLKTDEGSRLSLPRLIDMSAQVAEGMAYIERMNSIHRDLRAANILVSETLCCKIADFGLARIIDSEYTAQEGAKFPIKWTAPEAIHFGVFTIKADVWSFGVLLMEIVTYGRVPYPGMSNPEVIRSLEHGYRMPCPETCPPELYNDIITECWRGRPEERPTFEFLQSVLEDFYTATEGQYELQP
T14 sequence (Q9HBY8 whole entry): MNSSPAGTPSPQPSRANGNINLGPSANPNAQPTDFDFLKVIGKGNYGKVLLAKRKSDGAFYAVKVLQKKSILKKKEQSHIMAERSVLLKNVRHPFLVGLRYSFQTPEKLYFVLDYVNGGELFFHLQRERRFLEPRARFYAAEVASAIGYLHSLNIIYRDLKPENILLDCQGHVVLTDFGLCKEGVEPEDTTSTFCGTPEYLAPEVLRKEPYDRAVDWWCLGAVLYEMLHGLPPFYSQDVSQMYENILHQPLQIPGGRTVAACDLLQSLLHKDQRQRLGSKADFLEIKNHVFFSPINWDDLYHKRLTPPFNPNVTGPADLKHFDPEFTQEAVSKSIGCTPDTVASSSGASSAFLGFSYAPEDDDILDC

Turning to `c1cc(CC2CCOCC2)n2nc(Nc3ccc4c(NC5CCOCC5)n[nH]c4c3)nc2c1` [CC-509, [3-(2H-3,4,5,6-tetrahydropyran-4-ylamino)(1H-indazol-6-yl)][5-(2H-3,4,5,6-tetrahydropyran-4-ylmethyl)(2H-1,2,4-triazolo[1,5-a]pyridin-2-yl)]amine], the remaining activity at 3 µM at Blk_m (read-out: % control) turned out to be 63%; at CDK1_cyclinB_h (read-out: % control) it was 82%; on DYRK4_h (read-out: % control), 97%; on EEF2K_h (read-out: % control), 94%; at GRK5_h (read-out: % control) it was 96%; on GRK6_h (read-out: % control), 92%. For the same compound, the remaining activity at 3 µM turned out to be 100% at GSG2 _h (read-out: % control); 79% at MAP3K8_h (read-out: % control); 88% on MAPKAP-K3_h (read-out: % control); 71% on PKC-alpha_h (read-out: % control); 43% on PKC-betaII_h (read-out: % control); 92% on PKC-betaI_h (read-out: % control). Moreover, the remaining activity at 3 µM on PKC-gamma_h (read-out: % control) came out at 45%; on SGK2_h (read-out: % control), 89%; at SGK_h (read-out: % control), 96%; at TSSK2_h (read-out: % control) it was 93%. Besides, the IC50 in assay [1] (Homo sapiens, HWB Basophils FcεR, curve shown in figure, read-out: IC50 printed in Fig 3D panel) was 1610 nM; in [1] (human whole blood, mean ± SD, minimum n = 3, read-out: IC50, FcεR-dependent basophil activation (CD63)), 1520 ± 1050 nM. Further, in assay [1] (N-formyl-L-methionyl-L-leucyl-L-phenylalanine stimulation, data not shown), the FcεR-independent basophil activation entry is “not affected”.

Take `COc1cc(Nc2ncc(F)c(Nc3ccc4c(n3)NC(=O)C(C)(C)O4)n2)cc(OC)c1OC` [R406, reference compound]: the “% control” value on Blk_m (3 µM) stood at 11%; on CDK1_cyclinB_h (3 µM), 68%; on DYRK4_h (3 µM), 69%; on EEF2K_h (3 µM) it was 92%; at GRK5_h (3 µM), 108%; on GRK6_h (3 µM) it was 100%. Moreover, the “% control” value at GSG2 _h (3 µM) was 64%; on MAP3K8_h (3 µM), 52%; at MAPKAP-K3_h (3 µM) it was 96%; on PKC-alpha_h (3 µM), 42%; at PKC-betaII_h (3 µM), 19%; on PKC-betaI_h (3 µM) it was 59%. Also, the “% control” value on PKC-gamma_h (3 µM) is given as 16%; on SGK2_h (3 µM) it was 92%; at SGK_h (3 µM) it was 94%; at TSSK2_h (3 µM), 96%. The “IC50, FcεR-dependent basophil activation (CD63)” value in assay [1] (human whole blood, mean ± SD, minimum n = 3) is “not active”.
